For orientation: IC50 means the midpoint of a concentration-inhibition curve.

For the test, the target named is T1, HIV integrase (Human immunodeficiency virus type 1 group M subtype B, UniProt P12497, F1332H).
T1 construct: HIV integrase full length gene (J. Virol., 67, 425-437 (1993)) in which phenylalanine at codon 185 was substituted by histidine; made in house; host or cells: Escherichia coli BL21(DE3)
The test is described as follows: Determination of enzyme (HIV integrase) inhibitory activity. The class given is biochemical. To be noted: recombinant integrase protein (F185H), donor DNA/target DNA, absorbance at 450 nm. As to the method: HIV integrase full length gene (J. Virol., 67, 425-437 (1993)) in which phenylalanine at codon 185 was substituted by histidine, was inserted between the restriction enzyme NdeI and XhoI sites of plasmid pET21a(+) (Novagen), whereby an integrase expression vector pET21a-IN-F185H was constructed.
Escherichia coli recombinant BL21(DE3) transformed with plasmid pET21a-IN-F185H obtained in (i) was shake cultured at 30° C. in a liquid medium containing ampicillin. When the culture reached the logarithmic growth phase, isopropyl-β-D-thiogalactopyranoside was added to promote expression of integrase gene. The culture was continued for 3 hr to promote accumulation of the integrase protein. The recombinant E. coli was collected in pellets by centrifugal separation and preserved at −80° C.
The E. coli was suspended in Lysis buffer (20 mM HEPES (pH 7.5), 5 mM DTT, 10 mM CHAPS, 10% glycerol) containing 1M sodium chloride and subjected to repeat pressurization and depressurization for rupture, and centrifugal separation at 4° C., 40,000×g, 60 min to recover a water-soluble fraction (supernatant). This was diluted 10-fold with Lysis buffer free of sodium chloride, mixed with SP-Sepharose (Pharmacia Corporation) and stirred at 4° C. for 60 min to allow adsorption of integrase protein to the resin. The resin was washed with Lysis buffer containing 100 mM sodium chloride and the integrase protein was eluted with Lysis buffer containing 1M sodium chloride.
The eluted integrase protein solution was subjected to a Superdex 75 (Pharmacia Corporation) column for gel filtration. The protein was eluted with Lysis buffer containing 1M sodium chloride.
The obtained fractions of the integrase protein were collected and preserved at −80° C.
The following DNA synthesized by Greiner was dissolved in TE buffer (10 mM Tris-hydrochloric acid (pH 8.0), 1 mM EDTA) and mixed with donor DNA, target DNA, and each complementary strand (+ and − strands) to 1 μM. The mixture was heated at 95° C. for 5 min, 80° C. for 10 min, 70° C. for 10 min, 60° C. for 10 min, 50° C. for 10 min and 40° C. for 10 min and kept at 25° C. to give a double stranded DNA, which was used for the test. Donor DNA ([…] attached to the 5′ terminal) Donor + strand: 5′-Biotin-ACCCTTTTAGTCAGTGTGGAAAATCTCTAGCA-3′ (SEQ ID NO:1) Donor − strand: 5′-ACTGCTAGAGATTTTCCACACTGACTAAAAG-3′ (SEQ ID NO:2) Target DNA (+, − strands both having digoxigenin added at 3′ terminal) Target + strand: 5′-TGACCAAGGGCTAATTCACT-Dig-3′ (SEQ ID NO:3) Target − strand: 5′-AGTGAATTAGCCCTTGGTCA-Dig-3′ (SEQ ID NO:4)
The donor DNA was diluted with TE buffer to 10 nM, of which 50 μl was added to each well of streptavidin-coated microtiter plate (Roche) and allowed to adsorb at 37° C. for 60 min. The plate was washed with phosphate buffer (Dulbecco's PBS, Sanko Junyaku Co., Ltd.) containing 0.1% Tween 20 and phosphate buffer. Then, an enzyme reaction mixture (70 μl), a test substance (10 μl) diluted with the reaction mixture and 100 μg/ml integrase protein (10 μl) were added to each well and reacted at 37° C. for 60 min.
Then, 50 nM target DNA (10 μl) was added, reacted at 37° C. for 10 min and washed with phosphate buffer containing 0.1% Tween 20 to stop the reaction.
Then, 100 mU/ml peroxidase labeled anti-digoxigenin antibody solution (Roche, 100 μl) was added, and the mixture was reacted at 37° C. for 60 min, followed by washing with phosphate buffer containing 0.1% Tween 20.
A peroxidase color solution (Bio Rad, 100 μl) was added and allowed to react at room temperature for 4 min. The color reaction was stopped by adding 1N sulfuric acid (100 μl). The absorbance at 450 nm was measured.
The HIV integrase inhibitory activity (IC50) of the compound of the present invention was calculated from the inhibition rate according to the following formula. […]
With `CC(C)[C@@H](CO)n1cc(C(=O)O)c(=O)c2cc(Cc3cccc(Cl)c3F)c(O[C@H]3CCOC3)cc21` [Example 4-47, 6-(3-chloro-2-fluorobenzyl)-1-((1S)-1-(hydroxymethyl)-2-methylpropyl)-4-oxo-7-((3S)-tetrahydrofuran-3-yloxy)-1,4-dihydroquinoline-3-carboxylic acid], the IC50 came to 6.6 nM.

On to `COc1cc2c(cc1Cc1cccc(Cl)c1F)c(=O)c(C(=O)O)cn2[C@H](CO)CS(C)(=O)=O` [Example 2-4, 6-(3-chloro-2-fluorobenzyl)-1-((1R)-1-(hydroxymethyl)-2-mesylethyl)-7-methoxy-4-oxo-1,4-dihydroquinoline-3-carboxylic acid], for which the IC50 was found to be 10 nM.

Regarding `COc1cc2c(cc1Cc1c(O)ccc(Cl)c1F)c(=O)c(C(=O)O)cn2[C@H](CO)C(C)C` [Example 1-3, 6-(3-chloro-2-fluoro-6-hydroxybenzyl)-1-((1S)-1-(hydroxymethyl)-2-methylpropyl)-7-methoxy-4-oxo-1,4-dihydroquinoline-3-carboxylic acid], the IC50 was determined as 7.8 nM.

As for `CC(C)[C@@H](CO)n1cc(C(=O)O)c(=O)c2cc(Cc3cccc(Cl)c3F)c(N3CC[C@@H](N)C3)cc21` [Example 4-39, 7-((3R)-3-aminopyrrolidin-1-yl)-6-(3-chloro-2-fluorobenzyl)-1-((1S)-1-(hydroxymethyl)-2-methylpropyl)-4-oxo-1,4-dihydroquinoline-3-carboxylic acid], the IC50 is 9.4 nM.

In the case of `CC(C)[C@@H](CO)n1cc(C(=O)O)c(=O)c2cc(Cc3cccc(Cl)c3F)c(NC3CCNCC3)cc21` [Example 4-42, 6-(3-chloro-2-fluorobenzyl)-1-((1S)-1-(hydroxymethyl)-2-methylpropyl)-4-oxo-7-(piperidin-4-ylamino)-1,4-dihydroquinoline-3-carboxylic acid], the IC50 stood at 7.9 nM.

As for `CC(C)[C@@H](CO)n1cc(C(=O)O)c(=O)c2cc(Cc3cccc(Cl)c3F)c(OCc3ccc(C(N)=O)cc3)cc21` [Example 4-58, 7-(4-(aminocarbonyl)benzyloxy)-6-(3-chloro-2-fluorobenzyl)-1-((1S)-1-(hydroxymethyl)-2-methylpropyl)-4-oxo-1,4-dihydroquinoline-3-carboxylic acid], the IC50 worked out at 4.7 nM.

Consider `COCCCOc1cc2c(cc1Cc1cccc(Cl)c1F)c(=O)c(C(=O)O)cn2[C@H](CO)C(C)C` [Example 4-8, 6-(3-chloro-2-fluorobenzyl)-1-((1S)-1-(hydroxymethyl)-2-methylpropyl)-7-(3-methoxypropoxy)-4-oxo-1,4-dihydroquinoline-3-carboxylic acid], for which the IC50 was 4.7 nM.

With `CC(C)[C@@H](CO)n1cc(C(=O)O)c(=O)c2cc(Cc3cccc(Cl)c3F)c(OC3CCNCC3)cc21` [Example 4-25, 6-(3-chloro-2-fluorobenzyl)-1-((1S)-1-(hydroxymethyl)-2-methylpropyl)-4-oxo-7-(piperidin-4-yloxy)-1,4-dihydroquinoline-3-carboxylic acid], the IC50 is 4.1 nM.

Take `COc1cc2c(cc1Cc1ccc(F)c(Cl)c1)c(=O)c(C(=O)O)cn2[C@H](CO)C(C)C` [Example 1-1, 6-(3-chloro-4-fluorobenzyl)-1-((1S)-1-(hydroxymethyl)-2-methylpropyl)-7-methoxy-4-oxo-1,4-dihydroquinoline-3-carboxylic acid]: the IC50 stood at 19 nM.

On to `CC(C)[C@@H](CO)n1cc(C(=O)O)c(=O)c2cc(Cc3cccc(Cl)c3F)cc(O)c21` [Example 3-5, 6-(3-chloro-2-fluorobenzyl)-8-hydroxy-1-((1S)-1-(hydroxymethyl)-2-methylpropyl)-4-oxo-1,4-dihydroquinoline-3-carboxylic acid], for which the IC50 came to 4 nM.

As to `COc1cc2c(cc1Cc1cccc(Cl)c1Cl)c(=O)c(C(=O)O)cn2[C@H](CO)C(C)C` [Example 7-2, 6-(2,3-dichlorobenzyl)-1-((1S)-1-(hydroxymethyl)-2-methylpropyl)-7-methoxy-4-oxo-1,4-dihydroquinoline-3-carboxylic acid], the IC50 was 4.5 nM.

Regarding `CC(C)[C@@H](CO)n1cc(C(=O)O)c(=O)c2cc(Cc3cccc(Cl)c3F)c(OCc3ccncc3)cc21` [Example 4-60, 6-(3-chloro-2-fluorobenzyl)-1-((1S)-1-(hydroxymethyl)-2-methylpropyl)-4-oxo-7-(pyridin-4-ylmethoxy)-1,4-dihydroquinoline-3-carboxylic acid], the IC50 is 4.3 nM.

For `CC(C)[C@@H](CO)n1cc(C(=O)O)c(=O)c2cc(Cc3cccc(Cl)c3F)c(OCCCCN(C)C)cc21` [Example 4-7, 6-(3-chloro-2-fluorobenzyl)-7-(4-(dimethylamino)butoxy)-1-((1S)-1-(hydroxymethyl)-2-methylpropyl)-4-oxo-1,4-dihydroquinoline-3-carboxylic acid], the IC50 turned out to be 5 nM.

For `CS(=O)(=O)CC[C@@H](CO)n1cc(C(=O)O)c(=O)c2cc(Cc3cccc(Cl)c3F)ccc21` [Example 2-17, 6-(3-chloro-2-fluorobenzyl)-1-((1S)-1-(hydroxymethyl)-3-mesylpropyl)-4-oxo-1,4-dihydroquinoline-3-carboxylic acid], the IC50 came to 14 nM.

For `CC(C)[C@@H](CO)n1cc(C(=O)O)c(=O)c2cc(Cc3cccc(Cl)c3F)c(OCCO)cc21` [Example 7-3, 6-(3-chloro-2-fluorobenzyl)-7-(2-hydroxyethoxy)-1-((1S)-1-(hydroxymethyl)-2-methylpropyl)-4-oxo-1,4-dihydroquinoline-3-carboxylic acid], the IC50 is 3.5 nM.

As to `CC(C)[C@@H](CO)n1cc(C(=O)O)c(=O)c2cc(Cc3cccc(Cl)c3F)cc(OCCCO)c21` [Example 3-2, 6-(3-chloro-2-fluorobenzyl)-1-((1S)-1-(hydroxymethyl)-2-methylpropyl)-8-(3-hydroxypropoxy)-4-oxo-1,4-dihydroquinoline-3-carboxylic acid], the IC50 was determined as 4.7 nM.

For the molecule `CC(C)[C@@H](CO)n1cc(C(=O)O)c(=O)c2cc(Cc3cccc(Cl)c3F)c(OCS(N)(=O)=O)cc21` [Example 4-52, 7-((aminosulfonyl)methoxy)-6-(3-chloro-2-fluorobenzyl)-1-((1S)-1-(hydroxymethyl)-2-methylpropyl)-4-oxo-1,4-dihydroquinoline-3-carboxylic acid], the IC50 is 6.6 nM.

Regarding `O=C(O)c1cn2c3c(cc(Cc4cccc(Cl)c4F)cc3c1=O)OCC2CO` (centres unmarked) [Example 5-2, 8-(3-chloro-2-fluorobenzyl)-3-hydroxymethyl-6-oxo-2,3-dihydro-6H-1-oxa-3a-aza-phenalene-5-carboxylic acid], the IC50 was found to be 47 nM.

As for `CCOC(=O)N1CCC(Nc2cc3c(cc2Cc2cccc(Cl)c2F)c(=O)c(C(=O)O)cn3[C@H](CO)C(C)C)CC1` [Example 4-40, 6-(3-chloro-2-fluorobenzyl)-7-(1-(ethoxycarbonyl)piperidin-4-ylamino)-1-((1S)-1-(hydroxymethyl)-2-methylpropyl)-4-oxo-1,4-dihydroquinoline-3-carboxylic acid], the IC50 was found to be 6.8 nM.

Turning to `CC(C)[C@@H](CO)n1cc(C(=O)O)c(=O)c2cc(Cc3cccc(Cl)c3F)c(OCCCO)cc21` [Example 7-4, 6-(3-chloro-2-fluorobenzyl)-1-((1S)-1-(hydroxymethyl)-2-methylpropyl)-7-(3-hydroxypropoxy)-4-oxo-1,4-dihydroquinoline-3-carboxylic acid], the IC50 stood at 3.6 nM.

The record behind these values is patent publication US7531554B2, “4-oxoquinoline compound and use thereof as HIV integrase inhibitor” (Japan Tobacco Inc., priority 2004, dated 2009).
